From ChEMBL document CHEMBL1156713, “NSAIDs revisited: putative molecular basis of their interactions with peroxisome proliferator-activated gamma receptor (PPARgamma)” (Eur J Med Chem, 2008)
Values belong to the molecule of their own block, whether it stands above or below them.

Key:
[1] = Ratio of IC50 for COX1 to IC50 for COX2
[2] = molecular target: T1, Peroxisome proliferator-activated receptor gamma (Homo sapiens) (UniProt P37231); test: Activity at PPARgamma in human Caco-2 cells assessed as luciferase activity at 1000 uM relative to control; format: cell-based
T1 sequence (whole entry): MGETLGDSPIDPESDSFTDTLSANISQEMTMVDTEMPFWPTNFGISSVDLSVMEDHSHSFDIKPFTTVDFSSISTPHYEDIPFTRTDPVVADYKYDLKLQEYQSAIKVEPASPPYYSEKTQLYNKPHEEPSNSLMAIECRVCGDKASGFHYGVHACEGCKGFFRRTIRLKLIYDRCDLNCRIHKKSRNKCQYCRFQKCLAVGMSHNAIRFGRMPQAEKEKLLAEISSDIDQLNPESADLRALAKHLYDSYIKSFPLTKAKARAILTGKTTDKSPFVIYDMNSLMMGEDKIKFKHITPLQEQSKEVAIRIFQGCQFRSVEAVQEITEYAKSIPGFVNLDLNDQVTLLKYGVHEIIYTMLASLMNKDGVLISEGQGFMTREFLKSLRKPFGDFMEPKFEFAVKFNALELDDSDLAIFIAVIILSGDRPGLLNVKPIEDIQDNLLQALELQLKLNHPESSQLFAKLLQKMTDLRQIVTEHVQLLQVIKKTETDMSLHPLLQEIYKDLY

[3] = molecular target: T1, Peroxisome proliferator-activated receptor gamma (Homo sapiens); test: Activity at PPARgamma in human Caco-2 cells assessed as luciferase activity at 400 uM relative to control; format: cell-based
[4] = molecular target: T1, Peroxisome proliferator-activated receptor gamma (Homo sapiens); test: Activity at PPARgamma in human Caco-2 cells assessed as luciferase activity at 100 uM relative to control; format: cell-based
[5] = molecular target: T1, Peroxisome proliferator-activated receptor gamma (Homo sapiens); test: Activity at PPARgamma in human Caco-2 cells assessed as luciferase activity at 50 uM relative to control; format: cell-based
[6] = molecular target: T1, Peroxisome proliferator-activated receptor gamma (Homo sapiens); test: Activity at PPARgamma in human Caco-2 cells assessed as luciferase activity at 10000 uM relative to control; format: cell-based

- Ratio IC50 [1]: 0.258
SMILES: CSc1ccc(/C=C2/C(C)=C(CC(=O)O)c3cc(F)ccc32)cc1

- fold change (FC) [2]: 1.92
SMILES: CN1C(C(=O)Nc2ccccn2)=C(O)c2ccccc2S1(=O)=O

- fold change (FC) [3]: 3.33
SMILES: CC1=C(CC(=O)O)c2cc(F)ccc2/C1=C\c1ccc(S(C)(=O)=O)cc1

- fold change (FC) [4]: 2.51
SMILES: CC1=C(CC(=O)O)c2cc(F)ccc2/C1=C\c1ccc([S+](C)[O-])cc1 (configuration not stated)

- fold change (FC) [5]: 6.43
SMILES: COc1ccc2c(c1)c(CC(=O)O)c(C)n2C(=O)c1ccc(Cl)cc1

- fold change (FC) [6]: 4.02
SMILES: CC(=O)Oc1ccccc1C(=O)O

- fold change (FC) [2]: 5.81
SMILES: CC(C)Cc1ccc(C(C)C(=O)O)cc1 (configuration not stated)
